Experimental findings from patent publication US8178668B2, “2-aminopyridine kinase inhibitors” (OSI Pharmaceuticals, LLC, priority 2008, dated 2012) are described below.

The target in one assay is MET (human) (Homo sapiens, UniProt P08581). Kind of assay: MET kinase AlphaScreen assay (Km of ATP). The note with it: ATP at Km; at least duplicate experiments. It is filed as biochemical. In a few lines:
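Biotinylated poly(Glu,Tyr) (200 ng/μL) phosphorylated by MET with ATP at an enzyme-optimized level, in 50 mM HEPES pH 7.4 with Mg2+/Mn2+ and vanadate, 1% DMSO. Reaction runs 60 min at RT. PT66 AlphaScreen donor/acceptor beads are added and signal is read after 1 h.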
On the technique in general: Bead proximity is the source of the signal in Alpha formats.

A further assay concerns the target RON (human) (Homo sapiens, UniProt Q04912). Kind of assay: RON kinase AlphaScreen assay (Km of ATP). Type of assay: biochemical. The note with it: ATP at Km; at least duplicate experiments. In a few lines: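 Human RON phosphorylated biotinylated poly(Glu,Tyr) (200 ng/μL) at Km ATP in 50 mM HEPES pH 7.4, 12.5 mM MgCl2, 1% glycerol, 0.334 mM vanadate, 1% DMSO. Reaction ran 30 min at RT after enzyme addition. Product was detected by AlphaScreen with PT66 beads after 1 h.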

Broadly, the IC50 is the concentration that gives 50% inhibition. A lower IC50 goes with inhibition by little substance.

Counter-ions that a name gives are not always drawn.

Sequence of RON (human) (Q04912 25-1400): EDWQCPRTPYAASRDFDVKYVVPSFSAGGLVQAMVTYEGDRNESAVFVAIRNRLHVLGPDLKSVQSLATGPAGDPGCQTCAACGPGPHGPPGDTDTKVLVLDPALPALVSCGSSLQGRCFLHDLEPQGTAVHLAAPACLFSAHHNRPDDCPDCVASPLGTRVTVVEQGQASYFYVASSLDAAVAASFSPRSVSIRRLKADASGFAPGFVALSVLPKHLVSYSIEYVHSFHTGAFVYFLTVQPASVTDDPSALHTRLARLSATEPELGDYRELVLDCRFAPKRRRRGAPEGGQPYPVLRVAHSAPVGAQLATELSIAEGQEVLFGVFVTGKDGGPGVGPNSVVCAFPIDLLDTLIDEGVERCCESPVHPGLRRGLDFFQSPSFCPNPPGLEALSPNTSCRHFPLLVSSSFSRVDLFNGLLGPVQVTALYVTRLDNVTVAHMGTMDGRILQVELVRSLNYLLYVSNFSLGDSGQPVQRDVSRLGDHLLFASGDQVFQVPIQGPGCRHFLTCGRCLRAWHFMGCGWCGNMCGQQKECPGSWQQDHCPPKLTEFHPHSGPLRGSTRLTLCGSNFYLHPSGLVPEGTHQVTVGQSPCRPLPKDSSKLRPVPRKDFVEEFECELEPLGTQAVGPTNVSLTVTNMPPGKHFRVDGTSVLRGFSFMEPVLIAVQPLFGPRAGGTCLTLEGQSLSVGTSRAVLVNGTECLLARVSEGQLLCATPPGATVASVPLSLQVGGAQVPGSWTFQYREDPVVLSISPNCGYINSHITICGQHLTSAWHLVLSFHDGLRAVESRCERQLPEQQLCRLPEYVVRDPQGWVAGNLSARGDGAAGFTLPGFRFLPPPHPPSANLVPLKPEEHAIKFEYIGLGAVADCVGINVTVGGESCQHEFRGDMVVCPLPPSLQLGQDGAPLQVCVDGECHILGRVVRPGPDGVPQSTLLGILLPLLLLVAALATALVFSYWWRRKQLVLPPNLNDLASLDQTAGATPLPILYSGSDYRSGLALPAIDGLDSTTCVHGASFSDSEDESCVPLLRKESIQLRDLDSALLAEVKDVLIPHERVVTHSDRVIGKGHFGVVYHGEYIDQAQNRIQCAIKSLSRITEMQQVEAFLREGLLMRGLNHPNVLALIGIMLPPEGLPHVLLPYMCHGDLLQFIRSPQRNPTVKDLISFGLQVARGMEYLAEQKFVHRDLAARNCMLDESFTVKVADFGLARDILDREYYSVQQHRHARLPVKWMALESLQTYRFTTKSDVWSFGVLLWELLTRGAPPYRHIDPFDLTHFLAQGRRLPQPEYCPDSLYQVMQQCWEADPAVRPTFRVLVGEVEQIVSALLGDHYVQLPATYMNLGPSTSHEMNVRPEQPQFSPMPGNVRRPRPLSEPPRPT
Sequence of MET (human) (P08581 25-1390): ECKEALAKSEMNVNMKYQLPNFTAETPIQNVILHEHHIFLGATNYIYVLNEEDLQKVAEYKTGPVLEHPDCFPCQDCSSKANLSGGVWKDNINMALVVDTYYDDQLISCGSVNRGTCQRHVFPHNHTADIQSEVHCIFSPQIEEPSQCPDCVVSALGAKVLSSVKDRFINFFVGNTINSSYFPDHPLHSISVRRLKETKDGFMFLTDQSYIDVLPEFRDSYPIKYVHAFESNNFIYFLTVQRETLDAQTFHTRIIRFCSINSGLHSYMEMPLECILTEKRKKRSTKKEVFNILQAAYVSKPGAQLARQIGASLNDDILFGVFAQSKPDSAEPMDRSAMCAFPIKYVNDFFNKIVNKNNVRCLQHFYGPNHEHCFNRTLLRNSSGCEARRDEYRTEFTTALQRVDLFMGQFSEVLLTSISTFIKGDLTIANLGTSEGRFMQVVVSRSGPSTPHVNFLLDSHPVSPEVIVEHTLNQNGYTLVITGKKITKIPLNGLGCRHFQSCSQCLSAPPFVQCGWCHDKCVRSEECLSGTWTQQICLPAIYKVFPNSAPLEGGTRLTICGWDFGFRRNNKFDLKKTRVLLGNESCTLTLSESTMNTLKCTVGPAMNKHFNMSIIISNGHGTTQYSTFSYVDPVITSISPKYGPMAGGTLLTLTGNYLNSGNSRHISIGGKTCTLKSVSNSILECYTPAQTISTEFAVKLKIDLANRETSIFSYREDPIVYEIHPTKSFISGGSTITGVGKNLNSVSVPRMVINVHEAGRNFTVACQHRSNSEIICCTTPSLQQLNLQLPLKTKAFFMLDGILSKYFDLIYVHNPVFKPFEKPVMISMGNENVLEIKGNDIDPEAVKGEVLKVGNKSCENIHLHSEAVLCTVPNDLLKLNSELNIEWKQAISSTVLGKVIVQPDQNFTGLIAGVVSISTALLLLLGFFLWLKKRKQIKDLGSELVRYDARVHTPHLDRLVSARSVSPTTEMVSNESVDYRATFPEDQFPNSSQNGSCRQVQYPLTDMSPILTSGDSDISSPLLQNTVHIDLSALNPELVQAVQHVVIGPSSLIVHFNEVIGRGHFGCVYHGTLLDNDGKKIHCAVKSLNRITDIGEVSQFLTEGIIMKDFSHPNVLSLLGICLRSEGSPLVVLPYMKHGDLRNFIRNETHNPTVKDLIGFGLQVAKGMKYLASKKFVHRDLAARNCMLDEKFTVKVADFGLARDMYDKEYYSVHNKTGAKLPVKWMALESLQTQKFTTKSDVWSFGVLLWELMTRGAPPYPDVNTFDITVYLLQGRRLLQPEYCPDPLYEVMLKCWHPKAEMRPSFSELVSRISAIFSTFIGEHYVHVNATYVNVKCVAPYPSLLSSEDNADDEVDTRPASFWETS

Consider `COc1ccc2cc(-c3cc(-c4cnn(C5CCNCC5)c4)cnc3N)ncc2c1` [Example 44, 3-(7-Methoxyisoquinolin-3-yl)-5-(1-piperidin-4-yl-1H-pyrazol-4-yl)-pyridin-2-ylamine trihydrochloride], for which the half-maximal inhibitory concentration (IC50) against MET (human) and against RON (human) was 1000 to 20000 nM in each case.

With `Nc1ncc(-c2ccc(OCC(=O)N3CCCC3)cc2)cc1-c1nc2ccccc2s1` [Example 241, 2-[4-(6-Amino-5-benzothiazol-2-ylpyridin-3-yl)phenoxy]-1-pyrrolidin-1-ylethanone], the IC50 against MET (human) is 1000 to 20000 nM; on RON (human) it was greater than 20000 nM.

Consider `Nc1ncc(-c2cnn(C3CCNCC3)c2)cc1-c1cc2ccc(F)cc2cn1` [Example 34, 3-(7-Fluoroisoquinolin-3-yl)-5-(1-piperidin-4-yl-1H-pyrazol-4-yl)-pyridin-2-ylamine], for which the IC50 against MET (human) lay within 100 to 1000 nM; at RON (human) it was 1000 to 20000 nM.

As to `Nc1ncc(-c2cnn(C3CCNCC3)c2)cc1N1CCc2c(Cl)cccc2C1` [Example 302, 3-(5-Chloro-3,4-dihydro-1H-isoquinolin-2-yl)-5-(1-piperidin-4-yl-1H-pyrazol-4-yl)-pyridin-2-ylamine], the IC50 at MET (human) and against RON (human) was 100 to 1000 nM throughout.

As for `Nc1ncc(-c2cnn(C3CCNCC3)c2)cc1-c1nc2ccc(OC(F)(F)F)cc2s1` [Example 266, 5-(1-Piperidin-4-yl-1H-pyrazol-4-yl)-3-(6-trifluoromethoxybenzothiazol-2-yl)-pyridin-2-ylamine], the IC50 against MET (human) and against RON (human) was 1000 to 20000 nM throughout.

Regarding `CN(C)C(=O)N1CCC(n2cc(-c3cnc(N)c(-c4nc5ccccc5s4)c3)cn2)CC1` [Example 117, 4-[4-(6-Amino-5-benzothiazol-2-yl-pyridin-3-yl)-pyrazol-1-yl]-piperidine-1-carboxylic acid dimethylamide bis-hydrochloride], the IC50 against MET (human) and at RON (human) was 100 to 1000 nM throughout.

As to `CN1C2CCC1CC(n1cc(-c3cnc(N)c(-c4cc5c(Cl)ccc(F)c5cn4)c3)cn1)C2` (stereo not drawn) [Example 64, 3-(5-Chloro-8-fluoroisoquinolin-3-yl)-5-[1-(8-methyl-8-azabicyclo [3.2.1]-oct-3-yl)-1H-pyrazol-4-yl]-pyridin-2-ylamine], the IC50 against MET (human) and against RON (human) was 100 to 1000 nM throughout.

`CC(C(=O)N(C)C)n1cc(-c2cnc(N)c(-c3nc4ccccc4s3)c2)cn1` (stereo not drawn) [Example 148, 2-[4-(6-Amino-5-benzothiazol-2-ylpyridin-3-yl)-pyrazol-1-yl]-N,N-dimethylpropionamide]: the IC50 against MET (human) and against RON (human) was 1000 to 20000 nM each time.

As for `Nc1ncc(-c2cnn(C3CCNCC3)c2)cc1-c1nc2c(s1)CCCC2` [Example 298, 5-(1-Piperidin-4-yl-1H-pyrazol-4-yl)-3-(4,5,6,7-tetrahydro-benzothiazol-2-yl)-pyridin-2-ylamine], the IC50 at MET (human) and on RON (human) was no more than 100 nM in each case.

As to `CN(C)C(=O)N1CCC(n2cc(-c3cnc(N)c(-c4cc5c(Cl)ccc(F)c5cn4)c3)cn2)CC1` [Example 67, 4-4-[6-Amino-5-(5-chloro-8-fluoroisoquinolin-3-yl)-pyridin-3-yl]-pyrazol-1-ylpiperidine-1-carboxylic acid dimethylamide bis-hydrochloride], the half-inhibitory concentration (IC50) against MET (human) and against RON (human) was 100 to 1000 nM throughout.

With `Nc1ncc(-c2cc3ccccc3[nH]2)cc1-c1cc2c(Cl)ccc(F)c2cn1` [Example 89, 3-(5-Chloro-8-fluoroisoquinolin-3-yl)-5-(1H-indol-2-yl)pyridin-2-amine], the IC50 against MET (human) and against RON (human) was 1000 to 20000 nM in each case.

`Nc1ncc(-c2cnn(C3CCN(CC(=O)O)CC3)c2)cc1-c1nc2ccccc2s1` [Example 161, {4-[4-(6-Amino-5-benzothiazol-2-ylpyridin-3-yl)-pyrazol-1-yl]-piperidin-1-yl}-acetic acid]: the half-maximal inhibitory concentration (IC50) is no more than 100 nM against MET (human) and 100 to 1000 nM against RON (human).

On to `Nc1ncc(-c2cnn(C3CCNCC3)c2)cc1-c1cc2c(Cl)ccc(F)c2cn1` [Example 11, 3-(5-Chloro-8-fluoroisoquinolin-3-yl)-5-(1-piperidin-4-yl-1H-pyrazol-4-yl)-pyridin-2-ylamine trihydrochloride], for which the IC50 at MET (human) was no more than 100 nM; at RON (human) it was 100 to 1000 nM.

Regarding `Nc1ncc(-c2cnn(C3CCNCC3)c2)cc1-c1cc2c(Cl)cccc2cn1` [Example 42, 3-(5-Chloroisoquinolin-3-yl)-5-(1-piperidin-4-yl-1H-pyrazol-4-yl)-pyridin-2-ylamine trihydrochloride], the IC50 against MET (human) and at RON (human) was 100 to 1000 nM throughout.

On to `Nc1ncc(-c2cnn(C3CCNCC3)c2)cc1-c1cc2c(-c3cccnc3)ccc(F)c2cn1` [Example 54, 3-(8-Fluoro-5-pyridin-3-ylisoquinolin-3-yl)-5-(1-piperidin-4-yl-1H-pyrazol-4-yl)-pyridin-2-ylamine trihydrochloride pyridin-2-ylamine trihydrochloride], for which the figures for the IC50 on MET (human) and against RON (human) were 100 to 1000 nM and 1000 to 20000 nM, respectively.

Regarding `CN(C)C1CCN(C(=O)c2cccc(-c3cnc(N)c(-c4nc5ccccc5s4)c3)c2)C1` (stereo not drawn) [Example 224, [3-(6-Amino-5-benzothiazol-2-ylpyridin-3-yl)phenyl]-(3-dimethylaminopyrrolidin-1-yl)methanone], the IC50 on MET (human) was 100 to 1000 nM; against RON (human) it was 1000 to 20000 nM.

On to `Nc1ncc(-c2cnn(CC(=O)N3CCCC3)c2)cc1-c1nc2ccccc2s1` [Example 133, 2-[4-(6-Amino-5-benzothiazol-2-ylpyridin-3-yl)-pyrazol-1-yl]-1-pyrrolidin-1-ylethanone], for which the IC50 on MET (human) and at RON (human) was 1000 to 20000 nM each time.

As to `Nc1ncc(-c2cnn([C@@H]3CN[C@H](C(=O)N4CCCCC4)C3)c2)cc1-c1nc2ccccc2s1` [Example 158, {(2S,4S)-4-[4-(6-Amino-5-benzothiazol-2-ylpyridin-3-yl)-pyrazol-1-yl]-pyrrolidin-2-yl}-piperidin-1-ylmethanone], the IC50 on MET (human) and against RON (human) was no more than 100 nM throughout.

With `Cc1cccc2sc(-c3cc(-c4cnn(C5CCNCC5)c4)cnc3N)nc12` [Example 257, 3-(4-Methylbenzothiazol-2-yl)-5-(1-piperidin-4-yl-1H-pyrazol-4-yl)-pyridin-2-ylamine], the IC50 on MET (human) and against RON (human) was 100 to 1000 nM each time.

Regarding `Nc1ncc(-c2cnn(CCN3CCOCC3)c2)cc1-c1nc2ccccc2s1` [Example 197, 3-Benzothiazol-2-yl-5-[1-(2-morpholin-4-ylethyl)-1H-pyrazol-4-yl]pyridin-2-ylamine], the IC50 at MET (human) and against RON (human) was 1000 to 20000 nM each time.

As for `Nc1ncc(-c2ccc(OCC(=O)N3CCOCC3)cc2)cc1-c1nc2ccccc2s1` [Example 244, 2-[4-(6-Amino-5-benzothiazol-2-ylpyridin-3-yl)phenoxy]-1-morpholin-4-ylethanone], the IC50 on MET (human) was 1000 to 20000 nM; on RON (human) it was greater than 20000 nM.

For the compound `Nc1ncc(-c2cnn(C3CCNCC3)c2)cc1-c1cc2cc(-c3ccccc3)ccc2cn1` [Example 25, 3-(6-Phenylisoquinolin-3-yl)-5-(1-piperidin-4-yl-1H-pyrazol-4-yl)-pyridin-2-ylamine tri-hydrochloride salt], the IC50 on MET (human) and on RON (human) was 100 to 1000 nM each time.

Take `COCCN(CCOC)C(=O)CCn1cc(-c2cnc(N)c(-c3nc4ccccc4s3)c2)cn1` [Example 294, 3-[4-(6-Amino-5-benzothiazol-2-ylpyridin-3-yl)-pyrazol-1-yl]-N,N-bis-(2-methoxyethyl)-propionamide]: the IC50 at MET (human) and at RON (human) was 1000 to 20000 nM in each case.

With `Nc1ncc(-c2cnn(C3CCNCC3)c2)cc1-c1cc2ccc(Cl)cc2cn1` [Example 41, 3-(7-Chloroisoquinolin-3-yl)-5-(1-piperidin-4-yl-1H-pyrazol-4-yl)-pyridin-2-ylamine trihydrochloride], the values for the IC50 against MET (human) and at RON (human) were 100 to 1000 nM and 1000 to 20000 nM, respectively.

Take `Nc1ncc(-c2cnn(C3CCNCC3)c2)cc1-c1cc2c(F)ccc(F)c2cn1` [Example 10, 3-(5,8-Difluoroisoquinolin-3-yl)-5-(1-piperidin-4-yl-1H-pyrazol-4-yl)-pyridin-2-ylamine trihydrochloride]: the IC50 at MET (human) is 100 to 1000 nM; at RON (human) it was 1000 to 20000 nM.

For `CN1CCCN(C(=O)c2cccc(-c3cnc(N)c(-c4nc5ccccc5s4)c3)c2)CC1` [Example 226, [3-(6-Amino-5-benzothiazol-2-ylpyridin-3-yl)phenyl]-(4-methyl-[1,4]diazepan-1-yl)methanone], the IC50 against MET (human) is 100 to 1000 nM; against RON (human), 1000 to 20000 nM.

Take `COc1ccc(Cl)c2cc(-c3cc(-c4cccc(C(=O)O)c4)cnc3N)ncc12` [Example 91, 3-[6-Amino-5-(5-chloro-8-methoxyisoquinolin-3-yl)-pyridin-3-yl]benzoic acid]: the IC50 on MET (human) and on RON (human) was greater than 20000 nM throughout.

`Nc1ncc(-c2cccc(C(=O)N3CCC(N4CCCC4)CC3)c2)cc1-c1nc2ccccc2s1` [Example 217, [3-(6-Amino-5-benzothiazol-2-ylpyridin-3-yl)phenyl]-(4-pyrrolidin-1-ylpiperidin-1-yl)methanone]: the IC50 against MET (human) lay in the range of 100 to 1000 nM; on RON (human), 1000 to 20000 nM.

Regarding `CN(C)C(=O)[C@H]1C[C@H](n2cc(-c3cnc(N)c(-c4nc5ccccc5s4)c3)cn2)CN1` [Example 175, (2R,4S)-4-[4-(6-Amino-5-benzothiazol-2-ylpyridin-3-yl)-pyrazol-1-yl]-pyrrolidine-2-carboxylic acid dimethylamide], the IC50 against MET (human) and at RON (human) was 100 to 1000 nM in each case.

With `CNC(=O)c1ccc(-c2cnc(N)c(-c3nc4ccccc4s3)c2)cc1` [Example 199, 4-(6-Amino-5-benzothiazol-2-ylpyridin-3-yl)-N-methylbenzamide], the IC50 against MET (human) and against RON (human) was 1000 to 20000 nM each time.
